According to US20080070852A1, “3-Beta-D-Ribofuranosylthiazolo[ 4,5-D] Pyridimine Nucleosides and Uses Thereof” (priority 2004, published 2008):
Read-outs that look alike come from different tables or passages of the source.

Legend:
[1] = system: interferon alpha (Mu-IFN-α); assay: Murine interferon alpha in plasma of dosed mice; format: in vivo
Source text: The normal mouse provides a useful system for the assessment of the degree to which the inventions described herein provide material improvement in the oral delivery of 1 (isatoribine). Not only can one measure the plasma concentrations of isatoribine arising from oral administration of the said prodrug(s) but also the extensive immunological research conducted in the mouse has provided reagents suitable for measuring the levels of interferon alpha, a cytokine of interest reflecting one of the desired biologic activities of isatoribine.
Table 1 records the results of an assay for murine interferon alpha in the plasma of mice that were dosed two times with isatoribine, formulated in bicarbonate, at a level of 50 mg/kg by the oral route.
Table 2 records the results of assays for murine interferon alpha in the plasma of mice that first were dosed with bicarbonate and then four hours later were dosed orally with isatoribine, formulated in bicarbonate, at a level of 50 mg/kg. Interferon was reported in the plasma from four mice, including two that had received the bicarbonate vehicle dose.
Table 3 records the results of assays for murine interferon alpha in the plasma of mice that were dosed orally with val-isatoribine, dissolved in bicarbonate, at a dose that is equivalent to 50/mg/kg of isatoribine on a molar basis. […] Interferon was detected in all mice assayed at a given time point, indicating the reliability of the effect following val-isatoribine administration.
In other experiments, plasma levels of isatoribine and interferon alpha were measured in mice that were dosed with isatoribine by the intravenous route, and these levels were compared to the levels of isatoribine and interferon alpha arising after oral administration of val-isatoribine. […] Thus, oral val-isatoribine provides levels of isatoribine and interferon that are approximately 50% of those observed after intravenous administration of isatoribine itself.

[2] = Recovery of 1 in urine after intravenous administration; format: in vivo; conditions: read-out: recovery of administered dose in the urine as intact 1
Description: Reference values for compound I were obtained by similar procedures after either oral or intravenous dosing. […] For this reason, in some experiments the amount of 1 in urine collected over a period of 24 hours after dosing was used to assess compounds.

beagle dogs [3] = conditions: dog, in vivo, iv, 12.5 mg/kg
Description: (§1) Formal toxicology studies of intravenously administered isatoribine and orally administered isatoribine and val-isatoribine were conducted in beagle dogs.
(§2) In each case the compound was administered as a solution, by gavage or by intravenous infusion. Multiple parameters were assessed, as is customary in a toxicology study. In the studies providing higher potential exposure to isatoribine, the plasma concentration of isatoribine was assessed by a LC/MS method.

in vivo = conditions: beagle, dog, iv, 12.5 mg/kg
Description: as §1, §2

beagle dogs [4] = conditions: cited from earlier work
[5] = Toxicology studies in beagle dogs (GI tolerance); conditions: beagle, dog, iv; for AUC(0-t): plasma
Description: as §1, §2

beagle dogs [6] = assay: Toxicology studies in beagle dogs (GI tolerance); conditions: dogs
Description: as §1, §2

[7] = dogs, Oral Isatoribine, applied dose 2.5 mg/kg
[8] = IV Isatoribine, applied dose 25 mg/kg

## Nc1nc2c(sc(=O)n2[C@@H]2O[C@H](CO)[C@@H](O)[C@H]2O)c(=O)[nH]1 [Compound 1, 5-amino-3-β-D-ribofuranosylthiazolo[4,5-d]pyrimidine-2,7-dione, reference compound]
[1]; mice, two oral 50 mg/kg doses, interval four hours
  interferon in plasma: no interferon was measurable
[1]; oral dosing, studies of Tables 1-3
  mice with interferon detected in plasma: 4 of the 114
[2]
  dose excreted: > 75%
Beagle dogs [3]
  Emesis or loose stool: Neg.
  GI lesions or irritation: Neg.
In vivo
  AUC(0-t): 19500 ng·h/mL
Beagle dogs [4]; dog, in vivo, po
  limiting toxicity: gastrointestinal lesions
Beagle dogs [4]; [7]
  Emesis or loose stool: Neg.
  GI lesions or irritation: Neg.
Beagle dogs [4]; dogs, Oral Isatoribine, applied dose 5 mg/kg
  GI lesions or irritation: Neg.
Beagle dogs [4]; oral, 10 mg/kg, gross histopathologic evaluation
  dogs with multiple, scattered red lesions on the intestinal mucosa: four of eight dogs
[5]; in vivo
  NOAEL: 12.5 mg/kg
[5]; 25 mg/kg
  AUC(0-t): 42800 ng·h/mL
[5]; 50 mg/kg
  AUC(0-t): 87800 ng·h/mL
[5]; 100 mg/kg
  AUC(0-t): 209000 ng·h/mL
Beagle dogs [6]; intravenous, necropsy or histopathologic evaluation
  GI lesions: No lesions were seen in the GI tract
Beagle dogs [6]; [8]
  Emesis or loose stool: Neg.
  GI lesions or irritation: Neg.
Beagle dogs [6]; IV Isatoribine, applied dose 50 mg/kg
  GI lesions or irritation: Neg.
Beagle dogs [6]; IV Isatoribine, applied dose 100 mg/kg
  GI lesions or irritation: Neg.
